US11780826B2 (Amgen Inc., priority 2017, dated 2023)

Tested on: Bovine cardiac myofibrils
Assay: In vitro model of dose-dependent myofibril ATPase modulation (AC1.4, pyruvate kinase/lactate dehydrogenase-coupled ATPase assay at pCa25)
Type: biochemical
Conditions: concentration at which ATPase activity was 1.4-fold higher than the bottom of the dose curve, mean of a minimum of two independent tests
Summary of the method: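 Absorbance at 340 nm tracked ATP hydrolysis through pyruvate kinase/lactate dehydrogenase coupling (0.5 mM NADH, 1.5 mM PEP). Myofibrils from detergent-homogenized bovine heart, 1 mM ATP, pH 6.80, EGTA/CaCl2 buffering. Dose-response curves fitted with a four-parameter Hill equation.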

Row | Compound | AC1.4 [µM]
1 | N#CC1CN(S(=O)(=O)N2CCC[C@H](C(=O)N3CCC[C@@H]3C(=O)NCc3cc(F)cc(C(F)(F)F)c3)C2)C1 [Example 379, 1-(((3S)-1-((3-cyano-1-azetidinyl)sulfonyl)-3-piperidinyl)carbonyl)-N-(3-fluoro-5-(trifluoromethyl)benzyl)-D-prolinamide] | 1.237
2 | O=C(NCc1ccc(C(F)(F)F)cc1)[C@H]1CCCN1C(=O)[C@H]1CCCN(S(=O)(=O)N2CC(C(F)(F)F)C2)C1 [Example 380, 1-(((3S)-1-((3-(trifluoromethyl)-1-azetidinyl)sulfonyl)-3-piperidinyl)carbonyl)-N-(4-(trifluoromethyl)benzyl)-D-prolinamide] | 1.257
3 | Cc1cc(F)ccc1CNC(=O)[C@H]1CCCN1C(=O)[C@H]1CCCN(S(=O)(=O)N2CC(C#N)C2)C1 [Example 381, 1-(((3S)-1-((3-cyano-1-azetidinyl)sulfonyl)-3-piperidinyl)carbonyl)-N-(4-fluoro-2-methylbenzyl)-D-prolinamide] | 1.268
4 | O=C(NCc1ccc(C(F)(F)F)cc1)[C@H]1CCCN1C(=O)[C@H]1CCCN(S(=O)(=O)N2CC[C@H](C(F)(F)F)C2)C1 [Example 384, N-(4-(trifluoromethyl)benzyl)-1-(((3S)-1-(((3S)-3-(trifluoromethyl)-1-pyrrolidinyl)sulfonyl)-3-piperidinyl)carbonyl)-D-prolinamide] | 1.295
5 | COc1cc(CNC(=O)[C@H]2CCCN2C(=O)[C@H]2CCCN(S(=O)(=O)N3CC(C#N)C3)C2)ccc1C [Example 387, 1-(((3S)-1-((3-cyano-1-azetidinyl)sulfonyl)-3-piperidinyl)carbonyl)-N-(3-methoxy-4-methylbenzyl)-D-prolinamide] | 1.34
6 | COC[C@H](NC(=O)[C@H]1CCCN1C(=O)[C@H]1CCCN(S(=O)(=O)N2CC(C#N)C2)C1)c1cccc(C(F)(F)F)c1 [Example 388, 1-(((3S)-1-((3-cyano-1-azetidinyl)sulfonyl)-3-piperidinyl)carbonyl)-N-((1R)-2-methoxy-1-(3-(trifluoromethyl)phenyl)ethyl)-D-prolinamide,1-(((3S)-1-((3-cyano-1-azetidinyl)sulfonyl)-3-piperidinyl)carbonyl)-N-((1S)-2-methoxy-1-(3-(trifluoromethyl)phenyl)ethyl)-D-prolinamide] | 1.3405
7 | N#CC1CN(S(=O)(=O)N2CCC[C@H](C(=O)N3CCC[C@@H]3C(=O)NCc3cc(Cl)cc(Cl)c3)C2)C1 [Example 390, 1-(((3S)-1-((3-cyano-1-azetidinyl)sulfonyl)-3-piperidinyl)carbonyl)-N-(3,5-dichlorobenzyl)-D-prolinamide] | 1.3495
8 | C[C@@H](NC(=O)[C@H]1CCCN1C(=O)[C@H]1CCCN(S(=O)(=O)N2CC(C#N)C2)C1)c1cc(F)cc(F)c1 [Example 391, 1-(((3S)-1-((3-cyano-1-azetidinyl)sulfonyl)-3-piperidinyl)carbonyl)-N-((1R)-1-(3,5-difluorophenyl)ethyl)-D-prolinamide] | 1.3505
9 | N#CC1CN(S(=O)(=O)N2CCC[C@H](C(=O)N3CCC[C@@H]3C(=O)NCc3cc(F)ccc3F)C2)C1 [Example 394, 1-(((3S)-1-((3-cyano-1-azetidinyl)sulfonyl)-3-piperidinyl)carbonyl)-N-(2,5-difluorobenzyl)-D-prolinamide] | 1.3725

Further lines, results first:

Row | AC1.4 [µM] | Compound
10 | 1.232 | CCS(=O)(=O)c1cccc(C(=O)N2[C@@H](C(=O)N[C@@H](c3ccc(C(F)(F)F)cc3F)C3(O)CC3)C[C@H]3C[C@H]32)c1 [Example 382, (1R,3R,5R)-2-(3-(ethylsulfonyl)benzoyl)-N-((S)-(2-fluoro-4-(trifluoromethyl)phenyl)(1-hydroxycyclopropyl)methyl)-2-azabicyclo[3.1.0]hexane-3-carboxamide]
11 | 1.2725 | CCNc1cnc(C)cc1C(=O)N1[C@@H](C(=O)N[C@@H](c2ccc(C(F)(F)F)cc2F)C2CC2)C[C@H]2C[C@H]21 [Example 383, (1R,3R,5R)-N-((R)-cyclopropyl(2-fluoro-4-(trifluoromethyl)phenyl)methyl)-2-((5-(ethylamino)-2-methyl-4-pyridinyl)carbonyl)-2-azabicyclo[3.1.0]hexane-3-carboxamide]
12 | 1.3335 | N#CC1CN(S(=O)(=O)c2cccc(C(=O)N3CCC[C@@H]3C(=O)N[C@@H](CO)c3cccc(C(F)(F)F)c3)c2)C1 [Example 386, 1-(3-((3-cyano-1-azetidinyl)sulfonyl)benzoyl)-N-((1R)-2-hydroxy-1-(3-(trifluoromethyl)phenyl)ethyl)-D-prolinamide]
13 | 1.2325 | CCS(=O)(=O)c1cc(C(=O)N2[C@@H](C(=O)N[C@@H](c3cc(F)c(Cl)cc3F)C3CC3)C[C@H]3C[C@H]32)ccn1 [Example 389, (1R,3R,5R)-N-((R)-(4-chloro-2,5-difluorophenyl)(cyclopropyl)methyl)-2-((2-(ethylsulfonyl)-4-pyridinyl)carbonyl)-2-azabicyclo[3.1.0]hexane-3-carboxamide]
14 | 1.268 | O=C(N[C@@H](c1ccc(C(F)(F)F)cc1F)C1COC1)[C@H]1C[C@H]2C[C@H]2N1C(=O)c1ccnc(C(F)(F)F)c1 [Example 392, (1R,3R,5R)-N-((R)-(2-fluoro-4-(trifluoromethyl)phenyl)(3-oxetanyl)methyl)-2-((2-(trifluoromethyl)-4-pyridinyl)carbonyl)-2-azabicyclo[3.1.0]hexane-3-carboxamide]
15 | 1.3425 | CS(=O)(=O)c1cc(C(=O)N2C[C@H]3C[C@H]3[C@@H]2C(=O)N[C@@H](c2cc(F)c(Cl)cc2F)C2CC2)ccn1 [Example 393, (1R,2R,5S)-N-((R)-(4-chloro-2,5-difluorophenyl)(cyclopropyl)methyl)-3-((2-(methylsulfonyl)-4-pyridinyl)carbonyl)-3-azabicyclo[3.1.0]hexane-2-carboxamide]
16 | 1.361 | CCS(=O)(=O)c1cccc(C(=O)N2[C@@H](C(=O)N[C@@H](c3cc(F)c(Cl)cc3F)[C@H](C)O)C[C@H]3C[C@H]32)c1 [Example 395, (1R,3R,5R)-N-((1S,2S)-1-(4-chloro-2,5-difluorophenyl)-2-hydroxypropyl)-2-(3-(ethylsulfonyl)benzoyl)-2-azabicyclo[3.1.0]hexane-3-carboxamide]
17 | 1.3975 | N#CC1CN(S(=O)(=O)c2cccc(C(=O)N3CCC[C@@H]3C(=O)NCc3ccccc3Cl)c2)C1 [Example 396, N-(2-chlorobenzyl)-1-((3-((3-cyano-1-azetidinyl)sulfonyl)phenyl)carbonyl)-D-prolinamide]
18 | 1.361 | O=C(N[C@@H](c1cc(F)c(Cl)cc1F)C1CC1)[C@H]1C[C@@H](O)CN1C(=O)c1ccnc(C(F)(F)F)c1 [Example 397, (4R)-N-((R)-(4-chloro-2,5-difluorophenyl)(cyclopropyl)methyl)-4-hydroxy-1-((2-(trifluoromethyl)-4-pyridinyl)carbonyl)-D-prolinamide]
19 | 1.4045 | O=C(NCc1ccc(C(F)(F)F)cc1)[C@H]1CCCN1C(=O)[C@H]1CCCN(S(=O)(=O)N2CC(c3cccc(Cl)c3)C2)C1 [Example 398, 1-(((3S)-1-((3-(3-chlorophenyl)-1-azetidinyl)sulfonyl)-3-piperidinyl)carbonyl)-N-(4-(trifluoromethyl)benzyl)-D-prolinamide]
